Laboratory results: ChEMBL document CHEMBL5104202, “Structure-Uptake Relationship Studies of Oxazolidinones in Gram-Negative ESKAPE Pathogens” (J Med Chem, 2022)

Experiments:
Format in all cases: functional, organism-based
[1] = tested on: Acinetobacter baumannii; experiment: Antibacterial activity against recombinant OM pore producing Acinetobacter baumannii assessed as inhibition of bacterial growth
[2] = tested on: Pseudomonas aeruginosa; experiment: Antibacterial activity against efflux pump lacking Pseudomonas aeruginosa assessed as inhibition of bacterial growth
[3] = tested on: Pseudomonas aeruginosa; experiment: Antibacterial activity against wild type Pseudomonas aeruginosa assessed as inhibition of bacterial growth
[4] = tested on: Acinetobacter baumannii; experiment: Antibacterial activity against efflux pump lacking Acinetobacter baumannii assessed as inhibition of bacterial growth
[5] = tested on: Acinetobacter baumannii; experiment: Antibacterial activity against efflux pump lacking/recombinant OM pore producing Acinetobacter baumannii assessed as inhibition of bacterial growth
[6] = tested on: Escherichia coli; experiment: Antibacterial activity against recombinant OM pore producing Escherichia coli assessed as inhibition of bacterial growth
[7] = tested on: Escherichia coli; experiment: Antibacterial activity against efflux pump lacking Escherichia coli assessed as inhibition of bacterial growth
[8] = tested on: Pseudomonas aeruginosa; experiment: Antibacterial activity against recombinant OM pore producing Pseudomonas aeruginosa assessed as inhibition of bacterial growth
[9] = tested on: Acinetobacter baumannii; experiment: Antibacterial activity against wild type Acinetobacter baumannii assessed as inhibition of bacterial growth
[10] = tested on: Escherichia coli; experiment: Antibacterial activity against wild type Escherichia coli assessed as inhibition of bacterial growth
[11] = tested on: Pseudomonas aeruginosa; experiment: Antibacterial activity against efflux pump lacking/recombinant OM pore producing Pseudomonas aeruginosa assessed as inhibition of bacterial growth
[12] = tested on: Escherichia coli; experiment: Antibacterial activity against efflux pump lacking/recombinant OM pore producing Escherichia coli assessed as inhibition of bacterial growth

| SMILES | IC50 [1] | IC50 [2] | IC50 [3] | IC50 [4] | IC50 [5] | IC50 [6] | IC50 [7] | IC50 [8] | IC50 [9] | IC50 [10] | IC50 [11] | IC50 [12] |
| --- | --- | --- | --- | --- | --- | --- | --- | --- | --- | --- | --- | --- |
| COc1ccc(-c2ccc(N3C[C@H](CO)OC3=O)cc2F)cc1 | > 100 µM | 0.7 µM | > 100 µM | 0.7 µM | 0.6 µM | 3.4 µM | 0.2 µM | > 100 µM | > 100 µM | 23.3 µM | 1.2 µM | 0.3 µM |
| COc1ccc(CN)cc1OCC#Cc1ccc(N2C[C@H](CO)OC2=O)cc1F | > 100 µM | > 100 µM | > 100 µM | > 100 µM | > 100 µM | > 100 µM | > 100 µM | > 100 µM | > 100 µM | > 100 µM | > 100 µM | > 100 µM |
| Cc1ccc(-c2ccc(N3C[C@H](CO)OC3=O)cc2F)cc1 | > 100 µM | 2.3 µM | > 100 µM | 2.3 µM | 1.6 µM | 3.2 µM | 0.3 µM | > 100 µM | > 100 µM | 28 µM | 3.8 µM | 0.3 µM |
| O=C1O[C@@H](CO)CN1c1ccc(-c2cnoc2)c(F)c1 | > 100 µM | 22.7 µM | > 100 µM | 83.4 µM | 83.4 µM | 56.1 µM | 23.6 µM | > 100 µM | > 100 µM | > 100 µM | 32.9 µM | 30.6 µM |
| O=C1O[C@@H](CO)CN1c1ccc(-c2cccc(S(=O)(=O)C(F)(F)F)c2)c(F)c1 | > 100 µM | > 100 µM | > 100 µM | 48.8 µM | 38.5 µM | 21.2 µM | 19.3 µM | > 100 µM | > 100 µM | > 100 µM | > 100 µM | 12.5 µM |
| O=C1O[C@@H](CO)CN1c1ccc(-c2cccc3cc[nH]c23)c(F)c1 | > 100 µM | > 100 µM | > 100 µM | 64.4 µM | 62.1 µM | 19.5 µM | 21.6 µM | > 100 µM | > 100 µM | 77 µM | > 100 µM | 7.2 µM |
| CC(O)c1ccc(OCC#Cc2ccc(N3C[C@H](CO)OC3=O)cc2F)cc1 (stereo partly specified) | > 100 µM | > 100 µM | > 100 µM | 61.9 µM | 34.7 µM | 24.7 µM | 30.2 µM | > 100 µM | > 100 µM | 62.4 µM | 91.3 µM | 13.5 µM |
| O=C(O)CNCC#Cc1ccc(N2C[C@H](CO)OC2=O)cc1F | > 100 µM | > 100 µM | > 100 µM | > 100 µM | > 100 µM | > 100 µM | > 100 µM | > 100 µM | > 100 µM | > 100 µM | > 100 µM | > 100 µM |
| O=C1O[C@@H](CO)CN1c1ccc(-c2ccccn2)c(F)c1 | > 100 µM | 64.2 µM | > 100 µM | > 100 µM | > 100 µM | > 100 µM | 76.8 µM | > 100 µM | > 100 µM | > 100 µM | 47.4 µM | 79.6 µM |
| O=C1NCCN1CC#Cc1ccc(N2C[C@H](CO)OC2=O)cc1F | > 100 µM | > 100 µM | > 100 µM | > 100 µM | > 100 µM | > 100 µM | 64.3 µM | > 100 µM | > 100 µM | > 100 µM | > 100 µM | 39 µM |
| C[n+]1cccc(-c2ccc(N3C[C@H](CO)OC3=O)cc2F)c1 | > 100 µM | > 100 µM | > 100 µM | > 100 µM | > 100 µM | > 100 µM | 70.6 µM | > 100 µM | > 100 µM | > 100 µM | > 100 µM | 88.8 µM |
| CC(C)(C)OC(=O)NNC(=O)C(CC#Cc1ccc(N2C[C@H](CO)OC2=O)cc1F)NC(=O)OC(C)(C)C (stereo partly specified) | > 100 µM | > 100 µM | > 100 µM | > 100 µM | > 100 µM | 51.4 µM | 13.3 µM | > 100 µM | > 100 µM | > 100 µM | > 100 µM | 56.1 µM |
| NCC#Cc1ccc(N2C[C@H](CO)OC2=O)cc1F | > 100 µM | > 100 µM | > 100 µM | > 100 µM | > 100 µM | > 100 µM | > 100 µM | > 100 µM | > 100 µM | > 100 µM | > 100 µM | > 100 µM |
